In patent US7960376B2, “Benzo-fused heterocycles” (priority 2007, dated 2011):

How the values were obtained:
[1] = biological target: human CB2 receptor (hCB2) (Homo sapiens, UniProt P34972); assay: cell-based; format: cell-based; details: intracellular cAMP, CHO-K1 cells, NKH-477 prestimulated, + agonist, − inverse agonist; for EC50: read-out: hCB2 EC50 range
rat CB2 receptor (rCB2) = biological target: T1, rat CB2 receptor (rCB2) (Rattus norvegicus, UniProt Q9QZN9); assay: cell-based; format: cell-based; details: intracellular cAMP, CHO-K1 cells, NKH-477 prestimulated, + agonist, − inverse agonist; for EC50: read-out: rCB2 EC50 range
T1 sequence (Q9QZN9 1-360): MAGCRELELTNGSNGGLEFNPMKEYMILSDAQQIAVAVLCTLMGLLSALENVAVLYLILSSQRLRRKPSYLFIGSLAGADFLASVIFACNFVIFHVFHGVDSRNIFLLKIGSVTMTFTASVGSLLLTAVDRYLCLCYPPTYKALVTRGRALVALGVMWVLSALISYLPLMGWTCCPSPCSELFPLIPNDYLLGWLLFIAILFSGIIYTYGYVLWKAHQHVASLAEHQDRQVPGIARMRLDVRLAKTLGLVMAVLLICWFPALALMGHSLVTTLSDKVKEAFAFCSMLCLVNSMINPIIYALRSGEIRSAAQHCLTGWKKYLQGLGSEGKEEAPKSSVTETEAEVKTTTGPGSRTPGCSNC

[2] = biological target: human CB1 receptor (hCB1) (Homo sapiens, UniProt P21554); assay: cAMP assay (LANCE TR-FRET) in CHO-K1 cells expressing hCB1; format: cell-based; details: intracellular cAMP, NKH-477 prestimulated, + agonist, − inverse agonist; for EC50: read-out: hCB1 EC50 range
[3] = system: CFA-induced mechanical hyperalgesia; assay: Anti-hyperalgesia in the Complete Freund's Adjuvant (CFA) model of inflammatory pain, Randall-Selitto paw pressure; format: in vivo, Male Sprague-Dawley rats; details: rat, injured paw, Pre-CFA 175 ± 4 g, Post-CFA 100 ± 3 g, cut-off 260 g, mean ± SEM, p < 0.05 vs Post-CFA

human CB2 receptor (hCB2), sequence (P34972 whole entry): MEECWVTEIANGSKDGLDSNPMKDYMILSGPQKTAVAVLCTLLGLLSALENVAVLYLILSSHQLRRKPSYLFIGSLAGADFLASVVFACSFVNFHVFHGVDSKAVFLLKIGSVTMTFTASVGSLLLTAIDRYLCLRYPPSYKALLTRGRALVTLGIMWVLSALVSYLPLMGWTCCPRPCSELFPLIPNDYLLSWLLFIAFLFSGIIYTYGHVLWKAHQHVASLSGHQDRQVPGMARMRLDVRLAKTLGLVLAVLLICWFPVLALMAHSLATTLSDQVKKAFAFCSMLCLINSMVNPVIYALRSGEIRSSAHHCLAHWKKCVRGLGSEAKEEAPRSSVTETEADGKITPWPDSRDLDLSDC
human CB1 receptor (hCB1), sequence (P21554 whole entry): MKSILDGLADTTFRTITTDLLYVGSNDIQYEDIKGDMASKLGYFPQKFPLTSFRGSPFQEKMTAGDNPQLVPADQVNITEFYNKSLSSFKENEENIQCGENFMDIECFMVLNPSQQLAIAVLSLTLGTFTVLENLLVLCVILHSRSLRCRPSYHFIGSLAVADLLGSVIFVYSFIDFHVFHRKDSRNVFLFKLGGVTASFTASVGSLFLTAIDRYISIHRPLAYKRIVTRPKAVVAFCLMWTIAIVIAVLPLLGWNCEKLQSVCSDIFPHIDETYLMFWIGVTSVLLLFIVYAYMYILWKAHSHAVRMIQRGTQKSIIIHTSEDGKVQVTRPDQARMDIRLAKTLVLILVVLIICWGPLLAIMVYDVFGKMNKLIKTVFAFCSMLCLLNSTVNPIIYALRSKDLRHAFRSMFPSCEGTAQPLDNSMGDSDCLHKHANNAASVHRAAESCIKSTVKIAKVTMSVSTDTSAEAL

| SMILES | hCB2 EC50 range [1] | rCB2 EC50 range (rat CB2 receptor (rCB2)) | hCB1 EC50 range [2] | Test Threshold ([3]; 1 mg/paw intrapaw) | Test Threshold ([3]; 0.1 mg/paw intrapaw) | EC50 [1] | EC50 (rat CB2 receptor (rCB2)) | EC50 [2] |
| --- | --- | --- | --- | --- | --- | --- | --- | --- |
| O=C(NC1CCCC1)c1ccc2c(c1)N(S(=O)(=O)c1ccc(F)cc1)CCS2 [Example 45, N-cyclopentyl-4-(4-fluorophenylsulfonyl)-3,4-dihydro-2H-benzo[b][1,4]thiazine-6-carboxamide] | +B | +A | +D | 179 ± 19 g | – | – | – | – |
| Cc1c(C(=O)c2cccc3ccccc23)c2cccc3c2n1[C@H](CN1CCOCC1)CO3 [WIN 55212, 2, reference compound] | – | – | – | – | 255 ± 5 g | – | – | – |
| O=S(=O)(c1ccccc1)N1CCSc2ccc(-c3nc(-c4ccccn4)no3)cc21 [Example 87, 5-(4-(phenylsulfonyl)-3,4-dihydro-2H-benzo[b][1,4]thiazin-6-yl)-3-(pyridin-2-yl)-1,2,4-oxadiazole] | – | – | – | – | – | > 10 µM | > 10 µM | > 10 µM |
| Cc1ccc(C(=O)N2CCSc3ccc(C(=O)NC4CCCC4)cc32)cc1 [Example 13, N-cyclopentyl-4-(4-methylbenzoyl)-3,4-dihydro-2H-benzo[b] [1,4]thiazine-6-carboxamide] | – | – | – | – | – | > 10 µM | > 10 µM | > 10 µM |
| CC(C)(C)c1noc(-c2ccc3c(c2)N(S(=O)(=O)c2ccc(F)cc2)CCS3)n1 [Example 85, 3-tert-butyl-5-(4-(4-fluorophenylsulfonyl)-3,4-dihydro-2H-benzo[b][1,4]thiazin-6-yl)-1,2,4-oxadiazole] | +B | +B | +D | – | – | – | – | – |
| CC(C)CNC(=O)c1ccc2c(c1)N(S(=O)(=O)c1ccc(F)cc1)CCO2 [Example 60, 4-(4-fluorophenylsulfonyl)-N-isobutyl-3,4-dihydro-2H-benzo[b][1,4] oxazine-6-carboxamide] | +B | +B | +D | – | – | – | – | – |
| O=C(c1ccc2c(c1)N(S(=O)(=O)c1ccc(F)cc1)CCS2)N1CCCC1 [Example 71] | +C | +C | +E | – | – | – | – | – |
| O=C(NC1CCCC1)c1ccc2c(c1)N(S(=O)(=O)c1ccc(Cl)cc1)CCO2 [Example 63, 4-(4-chlorophenylsulfonyl)-N-cyclopentyl-3,4-dihydro-2H-benzo[b][1,4]oxazine-6-carboxamide] | +B | +A | +D | – | – | – | – | – |
| O=C(c1ccc2c(c1)N(S(=O)(=O)c1ccc(F)cc1)CCS2)N1CCCCC1 [Example 77] | +C | +C | +E | – | – | – | – | – |
| CC(C)(C)c1noc(-c2ccc3c(c2)N(S(=O)(=O)c2ccc(C(F)(F)F)cc2)CCS3)n1 [Example 82, 3-tert-butyl-5-(4-(4-(trifluoromethyl)phenylsulfonyl)-3,4-dihydro-2H-benzo[b][1,4]thiazin-6-yl)-1,2,4-oxadiazole] | +B | +B | +D | – | – | – | – | – |
| CC(C)CNC(=O)c1ccc2c(c1)N(S(=O)(=O)c1ccc(Cl)cc1)CCO2 [Example 58, 4-(4-chlorophenylsulfonyl)-N-isobutyl-3,4-dihydro-2H-benzo[b][1,4]oxazine-6-carboxamide] | +B | +A | +D | – | – | – | – | – |
| CC(C)(C)NC(=O)c1ccc2c(c1)N(S(=O)(=O)c1ccccc1)CCC(C)(C)S2 [Example 91, N-tert-butyl-2,2-dimethyl-5-(phenylsulfonyl)-2,3,4,5-tetrahydrobenzo[b][1,4]thiazepine-7-carboxamide] | +D | +B | −E | – | – | – | – | – |
| CCN(CC)C(=O)c1ccc2c(c1)N(S(=O)(=O)c1ccc(C(F)(F)F)cc1)CCS2 [Example 73, N,N-diethyl-4-(4-(trifluoromethyl)phenylsulfonyl)-3,4-dihydro-2H-benzo[b][1,4]thiazine-6-carboxamide] | +C | +C | +E | – | – | – | – | – |
| CC1(C)CCN(S(=O)(=O)c2ccc(F)cc2)c2cc(C(=O)N3CCOCC3)ccc2S1 [Example 100, (5-(4-fluorophenyl-sulfonyl)-2,2-dimethyl-2,3,4,5-tetrahydro-benzo[b][1,4]thiazepin-7-yl) (morpholino)-methanone] | +E | +C | −E | – | – | – | – | – |
| COc1ccc(C(=O)N2CCSc3ccc(C(=O)NC45CC6CC(CC(C6)C4)C5)cc32)cc1 [Example 25, N-(1-adamantyl)-4-(4-methoxybenzoyl)-3,4-dihydro-2H-benzo[b][1,4]thiazine-6-carboxamide] | −E | −D | −E | – | – | – | – | – |
| C[C@H](NC(=O)c1ccc2c(c1)N(S(=O)(=O)c1ccccc1)CCC(C)(C)S2)C(C)(C)C [Example 98, (S)-N-(3,3-dimethyl-butan-2-yl)-2,2-dimethyl-5-(phenyl-sulfonyl)-2,3,4,5-tetrahydrobenzo[b][1,4] thiazepine-7-carboxamide] | +D | −E | −D | – | – | – | – | – |
| O=S(=O)(c1ccc(F)cc1)N1CCSc2ccc(-c3ncc(-c4ccccc4)[nH]3)cc21 [Example 108, 4-(4-fluorophenylsulfonyl)-6-(5-phenyl-1H-imidazol-2-yl)-3,4-dihydro-2H-benzo[b][1,4]thiazine] | +C | +B | +E | – | – | – | – | – |
| O=S(=O)(c1ccc(F)cc1)N1CCSc2ccc(-c3nc(-c4ccccn4)no3)cc21 [Example 83, 5-(4-(4-fluorophenylsulfonyl)-3,4-dihydro-2H-benzo[b][1,4]thiazin-6-yl)-3-(pyridin-2-yl)-1,2,4-oxadiazole] | +C | +B | +D | – | – | – | – | – |
| CC1(C)CCN(S(=O)(=O)c2ccc(F)cc2)c2cc(C(=O)NC3CCCC3)ccc2S1 [Example 101, N-cyclopentyl-5-(4-fluorophenylsulfonyl)-2,2-dimethyl-2,3,4,5-tetrahydrobenzo[b][1,4] thiazepine-7-carboxamide] | +E | −C | −E | – | – | – | – | – |
| CC(C)C(=O)N1CCSc2ccc(C(=O)NC34CC5CC(CC(C5)C3)C4)cc21 [Example 40, N-(1-adamantyl)-4-isobutyryl-3,4-dihydro-2H-benzo[b][1,4]thiazine-6-carboxamide] | +D | −D | −E | – | – | – | – | – |
